Laboratory results published in patent US20240368139A1, “NOVEL MODULATORS OF EHMT1 AND EHMT2 AND THERAPEUTIC USE THEREOF” (Tango Therapeutics, Inc., priority 2021, published 2024).
pIC50: −log10 of the molar value.

Key:
human EHMT2 913-1193 = biological target: T1, human EHMT2 913-1193 (Homo sapiens, UniProt Q96KQ7); assay: EHMT2 enzyme assay on histone peptide substrate (3H-SAM SPA); conditions: EHMT2 IC50, recombinant human EHMT2 913-1193, histone peptide substrate
T1 sequence (Q96KQ7 913-1193): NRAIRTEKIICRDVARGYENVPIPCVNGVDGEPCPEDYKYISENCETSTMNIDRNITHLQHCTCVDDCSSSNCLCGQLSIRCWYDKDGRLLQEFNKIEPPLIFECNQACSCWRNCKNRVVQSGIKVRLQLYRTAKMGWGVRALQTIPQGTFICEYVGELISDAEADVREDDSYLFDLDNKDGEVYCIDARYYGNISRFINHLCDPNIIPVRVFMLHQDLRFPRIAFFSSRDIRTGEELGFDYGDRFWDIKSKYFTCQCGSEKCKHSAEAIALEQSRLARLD

human EHMT1 982-1266 = biological target: T2, human EHMT1 982-1266 (Homo sapiens, UniProt Q9H9B1); assay: EHMT1 enzyme assay on histone peptide substrate (3H-SAM SPA); conditions: EHMT1 IC50, recombinant human EHMT1 982-1266, histone peptide substrate
T2 sequence (Q9H9B1 982-1266): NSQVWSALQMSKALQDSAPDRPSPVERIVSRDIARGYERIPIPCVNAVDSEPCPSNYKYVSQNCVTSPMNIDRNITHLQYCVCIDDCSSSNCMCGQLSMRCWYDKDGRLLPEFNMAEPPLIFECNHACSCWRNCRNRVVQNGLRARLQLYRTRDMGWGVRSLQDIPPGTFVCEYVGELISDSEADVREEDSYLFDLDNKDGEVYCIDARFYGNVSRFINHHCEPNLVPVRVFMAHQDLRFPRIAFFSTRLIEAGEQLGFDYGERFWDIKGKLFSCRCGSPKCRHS

H3K9me2 in HCT116 cells = assay: HCT116 H3K9me2 in-cell western assay; type: cell-based; conditions: Homo sapiens, HCT-116, 72 h, HCT116 cells, 72 hours incubation; read-out: H3K9me2 ICW IC50
Procedure, shortened: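 H3K9me2 signal (800 nm) was normalized to DRAQ5 DNA stain (700 nm) in an in-cell western. Cells were fixed with paraformaldehyde and probed overnight at 4° C with primary antibody.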

Compound	pIC50 (human EHMT2 913-1193)	pIC50 (human EHMT1 982-1266)	pIC50 (H3K9me2 in HCT116 cells)
[2H]C([2H])([2H])CNc1cc(C)nc(Nc2cc3c(c(C4=CCNCCC4)c2F)OCC3)n1 [Compound 231]	> 7.00	> 7.00	> 7.00
[2H]Cc1nc(Nc2cc3c(c(C4=CCNCCC4)c2)OCC3)nc(NC([2H])([2H])[2H])c1F [Compound 232]	6.30 to 7.00	6.30 to 7.00	6.30 to 7.00
[2H]Cc1nc(Nc2cc3c(c(C4=CCNCCC4)c2)OCO3)nc(NCC([2H])([2H])[2H])c1F [Compound 233]	5.70 to 6.30	6.30 to 7.00	5.70 to 6.30
[2H]Cc1cc(NC([2H])([2H])[2H])nc(Nc2cc3c(c(C4=CCN(C)CCC4)c2F)OCC3)n1 [Compound 234]	> 7.00	> 7.00	> 7.00
[2H]Cc1nc(Nc2cc3c(c(C4=CCNCCC4)c2F)OCC3)nc(NC)c1F [Compound 235]	> 7.00	> 7.00	> 7.00
CNc1cc(Nc2cc3c(c(C4=CCN(C)CCC4)c2F)OCCC3)nc(C)c1F [Compound 236]	6.30 to 7.00	> 7.00	6.30 to 7.00
[2H]Cc1nc(Nc2cc3c(c(C4=CCNCCC4)c2)OCC3)nc(NCC([2H])([2H])[2H])c1F [Compound 237]	5.70 to 6.30	6.30 to 7.00	6.30 to 7.00
[2H]C([2H])([2H])Nc1cc(C)nc(Nc2cc3c(c(C4=CCN(C)CCC4)c2F)OCC3)n1 [Compound 238]	> 7.00	> 7.00	> 7.00
CCNc1nc(Nc2cc3c(c(C4=CCNCCC4)c2F)OCC3)nc(C)c1F [Compound 239]	6.30 to 7.00	> 7.00	6.30 to 7.00
[2H]Cc1nc(Nc2cc3c(c(C4=CCNCCC4)c2)OCO3)nc(NC([2H])([2H])[2H])c1F [Compound 240]	6.30 to 7.00	6.30 to 7.00	6.30 to 7.00
CCNc1nc(Nc2cc3c(c(C4=CCN(C)CCC4)c2F)OCC3)nc(C)c1F [Compound 241]	5.70 to 6.30	6.30 to 7.00	6.30 to 7.00
CNc1nc(Nc2cc3c(c(C4=CCNCCC4)c2F)OCC3)nc(C)c1F [Compound 242]	> 7.00	> 7.00	> 7.00
CNc1cc(Nc2cc3c(c(C4=CCNCCC4)c2F)OCCC3)nc(C)c1F [Compound 243]	> 7.00	> 7.00	> 7.00
[2H]C([2H])([2H])CNc1cc(C)nc(Nc2cc3c(c(C4=CCN(C)CCC4)c2)OCO3)n1 [Compound 244]	6.30 to 7.00	> 7.00	6.30 to 7.00
CNc1nc(Nc2cc3c(c(C4=CCN(C)CCC4)c2F)OCC3)nc(C)c1F [Compound 245]	5.70 to 6.30	6.30 to 7.00	6.30 to 7.00
[2H]C([2H])([2H])CNc1cc(C)nc(Nc2cc3c(c(C4=CCNCCC4)c2)OCO3)n1 [Compound 246]	> 7.00	> 7.00	> 7.00
CNc1cc(CC(F)(F)F)nc(Nc2cc3c(c(C4=CCNCCC4)c2)OCC3)c1 [Compound 247]	6.30 to 7.00	6.30 to 7.00	6.30 to 7.00
[2H]Cc1cc(NC)nc(Nc2cc3c(c(C4=CCNCCC4)c2)OCCC3)n1 [Compound 248]	> 7.00	> 7.00	> 7.00
[2H]Cc1cc(NC([2H])([2H])[2H])nc(Nc2cc3c(c(C4=CCNCCC4)c2)OCCC3)n1 [Compound 250]	> 7.00	> 7.00	> 7.00
[2H]Cc1cc(NC([2H])([2H])[2H])nc(Nc2cc3c(c(C4=CCN(C)CCC4)c2)OCCC3)n1 [Compound 251]	> 7.00	> 7.00	> 7.00

Compound	pIC50 (human EHMT2 913-1193)	pIC50 (human EHMT1 982-1266)	pIC50 (H3K9me2 in HCT116 cells)
[2H]Cc1cc(NC([2H])([2H])[2H])nc(Nc2cc3c(c(C4=CCNCCC4)c2)OCO3)n1 [Compound 252]	> 7.00	> 7.00	> 7.00
[2H]Cc1cc(NC([2H])([2H])[2H])nc(Nc2cc3c(c(C4=CCN(C)CCC4)c2)OCO3)n1 [Compound 254]	> 7.00	> 7.00	> 7.00
CNc1cc(Nc2cc3c(c(C4=CCN(C)CCC4)c2F)OCC3)nc(C)c1F [Compound 255]	> 7.00	> 7.00	> 7.00
[2H]C([2H])([2H])Nc1nc(Nc2cc3c(c(C4=CCNCCC4)c2F)OCC3)nc(C)c1F [Compound 256]	> 7.00	> 7.00	> 7.00
CNc1cc(Nc2cc3c(c(C4=CCNCCC4)c2F)OCC3)nc(C)c1F [Compound 257]	> 7.00	> 7.00	> 7.00
[2H]C([2H])([2H])CNc1nc(Nc2cc3c(c(C4=CCNCCC4)c2F)OCC3)nc(C)c1F [Compound 258]	6.30 to 7.00	6.30 to 7.00	6.30 to 7.00
[2H]C([2H])([2H])CNc1cc(C)nc(Nc2cc3c(c(C4=CCN(C)CCC4)c2)OCCC3)n1 [Compound 259]	6.30 to 7.00	> 7.00	6.30 to 7.00
[2H]Cc1cc(NCC([2H])([2H])[2H])nc(Nc2cc3c(c(C4=CCN(C)CCC4)c2F)OCC3)n1 [Compound 260]	> 7.00	> 7.00	> 7.00
[2H]C([2H])([2H])CNc1nc(Nc2cc3c(c(C4=CCN(C)CCC4)c2F)OCC3)nc(C)c1F [Compound 261]	5.70 to 6.30	6.30 to 7.00	6.30 to 7.00
[2H]Cc1cc(NCC([2H])([2H])[2H])nc(Nc2cc3c(c(C4=CCNCCC4)c2F)OCC3)n1 [Compound 262]	> 7.00	> 7.00	> 7.00
[2H]C([2H])([2H])CNc1cc(C)nc(Nc2cc3c(c(C4=CCNCCC4)c2)OCCC3)n1 [Compound 263]	> 7.00	> 7.00	6.30 to 7.00
[2H]C([2H])([2H])Nc1cc(C)nc(Nc2cc3c(c(C4=CCNCCC4)c2)OCCC3)n1 [Compound 264]	> 7.00	> 7.00	> 7.00
[2H]Cc1cc(NC)nc(Nc2cc3c(c(C4=CCN(C)CCC4)c2)OCO3)n1 [Compound 265]	> 7.00	> 7.00	> 7.00
[2H]Cc1cc(NC)nc(Nc2cc3c(c(C4=CCN(C)CCC4)c2)OCCO3)n1 [Compound 266]	6.30 to 7.00	> 7.00	> 7.00
CNc1nc(Nc2cc3c(c(C4=CCN(C)CCC4)c2)OCC3)nc(C)c1F [Compound 267]	5.70 to 6.30	6.30 to 7.00	6.30 to 7.00
[2H]C([2H])([2H])Nc1cc(C)nc(Nc2cc3c(c(C4=CCN(C)CCC4)c2)OCCC3)n1 [Compound 268]	6.30 to 7.00	> 7.00	6.30 to 7.00
[2H]Cc1cc(NC)nc(Nc2cc3c(c(C4=CCNCCC4)c2)OCO3)n1 [Compound 269]	> 7.00	> 7.00	> 7.00
[2H]Cc1cc(NC)nc(Nc2cc3c(c(C4=CCNCCC4)c2)OCCO3)n1 [Compound 270]	> 7.00	> 7.00	> 7.00
[2H]C([2H])([2H])Nc1nc(Nc2cc3c(c(C4=CCN(C)CCC4)c2)OCC3)nc(C)c1F [Compound 271]	5.70 to 6.30	6.30 to 7.00	6.30 to 7.00
[2H]C([2H])([2H])CNc1cc(C)nc(Nc2cc3c(c(C4=CCN(C)CCC4)c2)OCCO3)n1 [Compound 272]	5.70 to 6.30	6.30 to 7.00	6.30 to 7.00
